From PubChem BioAssay (NCI)
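Exposure lasted 48 hours, with cells grown in 96-well plates and compounds tested at five concentrations. GI50 marks 50% less growth. TGI marks complete inhibition of growth.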

Tests used:
Assay in all cases: DTP human tumour cell line panel, 48 h
SW-620 colon = test system: SW-620 colon
A498 renal = test system: A498 renal
MDA-MB-231 breast = test system: MDA-MB-231 breast
BT-549 breast = test system: BT-549 breast
IGROV1 ovarian = test system: IGROV1 ovarian
U251 CNS = test system: U251 CNS
TK-10 renal = test system: TK-10 renal
SK-OV-3 ovarian = test system: SK-OV-3 ovarian
786-0 renal = test system: 786-0 renal
HT29 colon = test system: HT29 colon
NCI-H522 lung = test system: NCI-H522 lung
MOLT-4 leukemia = test system: MOLT-4 leukemia
HOP-62 NSCLC = test system: HOP-62 NSCLC
PC-3 prostate = test system: PC-3 prostate
SN12C renal = test system: SN12C renal
UACC-257 melanoma = test system: UACC-257 melanoma
HCT-15 colon = test system: HCT-15 colon
DU-145 prostate = test system: DU-145 prostate
SNB-75 CNS = test system: SNB-75 CNS
CAKI-1 renal = test system: CAKI-1 renal
NCI/ADR-RES ovarian = test system: NCI/ADR-RES ovarian
SF-295 CNS = test system: SF-295 CNS
ACHN renal = test system: ACHN renal
T-47D breast = test system: T-47D breast
HS 578T breast = test system: HS 578T breast
SK-MEL-5 melanoma = test system: SK-MEL-5 melanoma
SR leukemia = test system: SR leukemia
OVCAR-3 ovarian = test system: OVCAR-3 ovarian
HCT-116 colon = test system: HCT-116 colon

## CCNC(=O)N1CCc2cc(OC)c(OCCc3ccc(OC)nc3)cc2C1c1ccc(C)cc1C (configuration not stated)
SW-620 colon
  TGI: > 100000 nM
A498 renal
  GI50: 1390 nM
  TGI: 14300 nM
MDA-MB-231 breast
  GI50: 1140 nM
  TGI: 30200 nM
BT-549 breast
  GI50: 1550 nM
  TGI: 7450 nM
IGROV1 ovarian
  GI50: 743 nM
  TGI: > 100000 nM
U251 CNS
  GI50: 636 nM
  TGI: 17500 nM
TK-10 renal
  GI50: 5000 nM
  TGI: > 100000 nM
SK-OV-3 ovarian
  GI50: 2670 nM
  TGI: > 100000 nM
786-0 renal
  GI50: 687 nM
  TGI: > 100000 nM
HT29 colon
  GI50: 573 nM
  TGI: 10500 nM
NCI-H522 lung
  GI50: 523 nM
  TGI: 2720 nM
MOLT-4 leukemia
  GI50: 416 nM
  TGI: 35500 nM
HOP-62 NSCLC
  GI50: 1350 nM
  TGI: > 37500 nM
PC-3 prostate
  GI50: 719 nM
  TGI: > 71800 nM
SN12C renal
  GI50: 1100 nM
  TGI: 15400 nM
UACC-257 melanoma
  GI50: 2290 nM
  TGI: 50500 nM
HCT-15 colon
  GI50: 156 nM
  TGI: > 60200 nM
DU-145 prostate
  GI50: 858 nM
  TGI: 24000 nM
SNB-75 CNS
  GI50: 667 nM
  TGI: > 23500 nM
CAKI-1 renal
  GI50: 611 nM
  TGI: > 100000 nM
NCI/ADR-RES ovarian
  GI50: 659 nM
  TGI: 38800 nM
SF-295 CNS
  GI50: 574 nM
  TGI: 8800 nM
ACHN renal
  GI50: 662 nM
  TGI: 91100 nM
T-47D breast
  GI50: 2680 nM
  TGI: 64500 nM
HS 578T breast
  GI50: 1530 nM
  TGI: 10600 nM
SK-MEL-5 melanoma
  GI50: 839 nM
  TGI: 2710 nM
SR leukemia
  GI50: 207 nM
  TGI: 2960 nM
OVCAR-3 ovarian
  GI50: 1340 nM
  TGI: 24300 nM
HCT-116 colon
  GI50: 299 nM
  TGI: 20700 nM
